Assay results taken from ChEMBL document CHEMBL2073832, “Induction of cMrp/cMoat gene expression by cisplatin, 2-acetylaminofluorene, or cycloheximide in rat hepatocytes” (Hepatology, 1997).

Target: ATP-binding cassette sub-family C member 2 (Rattus norvegicus, UniProt Q63120)
Experiment: TP_TRANSPORTER: Northern blot from primary hepatocytes
Assay type: functional, cell-based, Hepatocyte

Chain of ATP-binding cassette sub-family C member 2 (Q63120 whole entry): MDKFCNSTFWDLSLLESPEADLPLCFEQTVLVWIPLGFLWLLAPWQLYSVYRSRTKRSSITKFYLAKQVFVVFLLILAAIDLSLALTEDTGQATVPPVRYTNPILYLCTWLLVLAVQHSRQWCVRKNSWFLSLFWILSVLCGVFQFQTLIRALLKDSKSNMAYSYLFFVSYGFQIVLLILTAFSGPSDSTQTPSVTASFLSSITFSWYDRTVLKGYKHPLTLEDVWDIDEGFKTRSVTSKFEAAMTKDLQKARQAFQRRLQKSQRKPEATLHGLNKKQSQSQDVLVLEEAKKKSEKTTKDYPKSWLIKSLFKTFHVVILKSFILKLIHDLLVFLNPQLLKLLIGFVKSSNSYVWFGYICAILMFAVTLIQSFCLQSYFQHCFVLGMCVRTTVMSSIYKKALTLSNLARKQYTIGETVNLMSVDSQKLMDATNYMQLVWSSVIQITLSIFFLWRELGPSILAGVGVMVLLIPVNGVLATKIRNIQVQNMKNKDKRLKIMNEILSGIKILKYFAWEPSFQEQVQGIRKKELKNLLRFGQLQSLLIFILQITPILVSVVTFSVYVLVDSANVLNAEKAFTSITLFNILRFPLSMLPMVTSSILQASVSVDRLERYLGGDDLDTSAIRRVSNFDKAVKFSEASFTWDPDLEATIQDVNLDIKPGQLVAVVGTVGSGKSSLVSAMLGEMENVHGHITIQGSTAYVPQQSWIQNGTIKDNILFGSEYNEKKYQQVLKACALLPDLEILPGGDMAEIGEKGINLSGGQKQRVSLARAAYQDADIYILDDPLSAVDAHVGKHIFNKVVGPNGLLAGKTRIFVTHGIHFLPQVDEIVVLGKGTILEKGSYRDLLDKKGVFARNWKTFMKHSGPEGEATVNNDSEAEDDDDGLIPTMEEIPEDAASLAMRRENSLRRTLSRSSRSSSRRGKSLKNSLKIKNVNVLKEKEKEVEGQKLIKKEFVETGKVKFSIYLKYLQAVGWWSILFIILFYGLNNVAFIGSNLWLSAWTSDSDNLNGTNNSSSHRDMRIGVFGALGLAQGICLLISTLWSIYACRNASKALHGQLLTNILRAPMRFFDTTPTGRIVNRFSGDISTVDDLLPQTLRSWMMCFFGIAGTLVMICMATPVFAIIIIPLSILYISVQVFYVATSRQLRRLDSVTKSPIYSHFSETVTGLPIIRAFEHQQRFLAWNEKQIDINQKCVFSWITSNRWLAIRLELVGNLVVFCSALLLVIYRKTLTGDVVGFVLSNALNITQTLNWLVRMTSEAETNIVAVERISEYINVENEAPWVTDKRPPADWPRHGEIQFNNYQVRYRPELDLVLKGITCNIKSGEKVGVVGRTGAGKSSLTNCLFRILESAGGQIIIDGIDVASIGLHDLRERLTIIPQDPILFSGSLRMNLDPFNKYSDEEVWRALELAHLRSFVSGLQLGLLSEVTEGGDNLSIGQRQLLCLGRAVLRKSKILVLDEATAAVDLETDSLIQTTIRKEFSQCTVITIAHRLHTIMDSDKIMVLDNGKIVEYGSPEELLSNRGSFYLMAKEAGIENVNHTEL

**Q.** C[C@@H]1C[C@@H]([C@H](O)CC2CC(=O)NC(=O)C2)C(=O)[C@@H](C)C1 [CYCLOHEXIMIDE] was tested. Which Activity did it give?
**A.** inducer [+]
